Where two headings read alike, the source gives them in different places.
How the values were obtained:
Klebsiella pneumoniae = test: MIC of β-lactams alone or with 50 µM IDACYD against clinical isolates; assay type: cell-based; conditions: Klebsiella pneumoniae, alone
Procedure: Further the in-vitro inhibitory activity of IDACYDs was tested against highly resistant pathogens. […] Table 2: Collection of clinical isolates used for in-vitro evaluation

[1] = system: NDM-1 producing K. pneumoniae clinical strain LA 26; test: Murine sepsis model: single dose treatment scheme-1; assay type: in vivo, CD-1 mice; conditions: meropenem monotherapy, single dose 30 mg/kg; 70 hours post infection
Procedure: Example 8. In-vivo murine sepsis model: Single dose treatment scheme-1: Neutropenic 7-8 weeks old CD-1 female mice weighing 29 to 32 grams were infected interperitoneally with a lethal dose (10^7 CFU) of the NDM-1 producing K. pneumoniae clinical strain LA 26 as described previously. […] The meropenem/ β-IDACYD combination was administrated in all dosing schemes simultaneously. Blood samples were taken 0, 6, 24 hours and 3 days after injection of a single dose of antibiotic (five infected animals for each timepoint) and were serially diluted in normal saline (10^-1 to 10^-9) and plated on MH agar plates which were incubated for 16 hours at 37 °C for determination of viable organisms. All mice were euthanised 3 days post infection and spleen and liver were harvested. Organs were placed into 1 mL of normal saline on ice and then homogenised. Organ homogenates were then serially diluted in normal saline (10^-1 to 10^-9) and plated on MH agar plates for CFU enumeration. In the absence of therapy 30% of mice remained alive 70 hours post infection. […] The bacterial burden in the blood 70 hours post treatment was relieved by 4.8log10 in the presence of 120 mg/kg of β-IDACYD compared to that of the antibiotic monotherapy. […] In Fig. 7 is shown the bacterial load (CFU/mL) and survival percentage of CD-1 mice infected with a lethal dose (10^7 CFU) of NDM-1 producing K. pneumoniae strain LA26. […] Treatment was given in a form of a single shot 2h after infection and blood was drawn 0h, 6h, 24h and 70h post treatment initiation. All groups were of n=10. Error bars are indicative of SEM (n=2 replicates).

[2] = system: NDM producing K. pneumoniae clinical strain LA26; test: Murine sepsis model: 2-hour intervals treatment scheme; assay type: in vivo, CD-1 mice; conditions: meropenem monotherapy 30 mg/kg every 2 h for 24 h, intraperitoneal; 140 hours
Procedure: Example 7. […] The animals were rendered neutropenic (<100 neutrophils/mm^3) by intraperitoneal injection of 150 and 100 mg/kg of cyclophosphamide at day -4 and day -1, respectively, before infection. […] The meropenem/ β-IDACYD combination was administrated in all dosing schemes simultaneously. […] Blood samples were taken 0, 6, 24 hours and 7 days after injection of a single dose of antibiotic (five infected animals for each timepoint) were serially diluted in normal saline (10^-1 to 10^-9) and plated on MH agar plates which were incubated for 16 hours at 37°C for determination of viable organisms. All mice that were alive were euthanised 7 days post infection and spleen and liver were harvested. The organs were placed into 1 mL of normal saline on ice and then homogenised. The organ homogenates were then serially diluted in normal saline (10^-1 to 10^-9) and plated on MH agar for CFU enumeration. Without therapy 90% of mice succumbed to the infection within 24 hours. […] Finally, the bacterial load in the spleen was relieved by 4.2 log10 compared to that of the antibiotic itself. In Fig.6 is shown the bacterial load (CFU/mL) (A) and survival percentage (B) of CD-1 mice infected with a lethal dose (10^7 CFU) of NDM-1 producing K. pneumoniae strain LA26. […] Treatment (initiated at 2 hours post infection) was given every 2h for a 24h period and blood was drawn 0 h, 6 h, 24 h and 140 h post treatment initiation. All groups were of n=10. Spleen and liver (C) from n=5 mice were also removed at 140 h post-treatment initiation the bacterial load [log (CFU/organ)] was determined. Error bars are indicative of SEM (n=2 replicates).

[3] = system: NDM-1 producing K. pneumoniae strain LA26; test: Murine sepsis model: single dose treatment scheme-2; assay type: in vivo, CD-1 mice; conditions: meropenem monotherapy, single dose 10 mg/kg; within 48 h
Procedure: Example 9. […] Blood samples were collected at 0, 6 and 24 hours after injection of a single dose of antibiotic (4 infected animals for each timepoint), were serially diluted in normal saline (10^-1 to 10^-9) and plated on MH agar plates which were incubated for 16 hours at 37°C for determination of viable organisms. […] The resulting 3.0log10 reduction in the blood bacterial load in the presence of 120 mg/kg of the inhibitor β-IDACYD compared to the antibiotic itself confirmed the high repotentiation abilities of the inhibitor to carbapenems even for suboptimal antibiotic doses. […] Treatment was given in a form of a single shot 2h after infection and blood was drawn 0h, 6h and 24h post treatment initiation. All groups were of n=10. Error bars are indicative of SEM (n=2 replicates).

[4] = molecular target: T1, MBL containing crude enzyme preparation (Kpn LA-26 NDM-1) (Klebsiella pneumoniae, UniProt C7C422); test: 1H NMR monitoring of meropenem hydrolysis by MBL crude enzyme preparation; assay type: biochemical; conditions: meropenem 0.18 mM, absence of β-IDACYD, 6 h incubation
T1 construct: an MBL containing crude enzyme preparation (Kpn LA-26 NDM-1, 485 µL); endogenous in cells; host or cells: Klebsiella pneumoniae clinical strain LA-26 (crude enzyme preparation)
T1 sequence (C7C422 29-270 limits assumed): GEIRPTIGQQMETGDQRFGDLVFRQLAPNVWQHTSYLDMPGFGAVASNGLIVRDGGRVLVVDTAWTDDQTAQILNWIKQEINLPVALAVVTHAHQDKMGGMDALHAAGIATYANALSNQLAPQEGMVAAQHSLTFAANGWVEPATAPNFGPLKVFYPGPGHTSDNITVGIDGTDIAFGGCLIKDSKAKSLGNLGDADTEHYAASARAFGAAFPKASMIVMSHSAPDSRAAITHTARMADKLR

## C[C@@H](O)[C@H]1C(=O)N2C(C(=O)O)=C(S[C@@H]3CN[C@H](C(=O)N(C)C)C3)[C@H](C)[C@H]12 [Meropenem, reference compound]
Klebsiella pneumoniae; read-out: Meropenem MIC, Kpn ESDY 5742 (IMP-1)
  MIC: 32 µg/mL
Klebsiella pneumoniae; read-out: Meropenem MIC, Kpn LA 26 (NDM-1)
  MIC: 32 µg/mL
Klebsiella pneumoniae; read-out: Meropenem MIC, Kpn LA 34 (VIM-1 CMY)
  MIC: 256 µg/mL
Klebsiella pneumoniae; read-out: Meropenem MIC, Kpn LA 82/16 (VIM-1)
  MIC: 64 µg/mL
Klebsiella pneumoniae; read-out: Meropenem MIC, Kpn LA 109/16 (VIM-1)
  MIC: 256 µg/mL
Klebsiella pneumoniae; read-out: Meropenem MIC, Kpn LA419/16 (NDM-1)
  MIC: 16 µg/mL
Klebsiella pneumoniae; read-out: Meropenem MIC, isolate ALX-47 (OXA-48,CTX-M)
  MIC: 8 µg/mL
Klebsiella pneumoniae; read-out: Meropenem MIC, isolate ESDY-1780 (VIM, KPC)
  MIC: 64 µg/mL
Klebsiella pneumoniae; read-out: Meropenem MIC, isolate ESDY-5742 (IMP)
  MIC: 16 µg/mL
Klebsiella pneumoniae; read-out: Meropenem MIC, isolate EY-20S (CMY, SHV)
  MIC: 8 µg/mL
Klebsiella pneumoniae; read-out: Meropenem MIC, isolate IT-17829 (CTXM, SHV)
  MIC: 32 µg/mL
Klebsiella pneumoniae; read-out: Meropenem MIC, isolate L078/11 (KPC)
  MIC: 64 µg/mL
Klebsiella pneumoniae; read-out: Meropenem MIC, isolate LA-26 (NDM)
  MIC: 32 µg/mL
Klebsiella pneumoniae; read-out: Meropenem MIC, isolate LA-27 (NDM, CTXM)
  MIC: 8 µg/mL
Klebsiella pneumoniae; read-out: Meropenem MIC, isolate LA-28 (NDM, CTXM)
  MIC: 64 µg/mL
Klebsiella pneumoniae; read-out: Meropenem MIC, isolate LA-34 (VIM, CMY), first entry of Table 3
  MIC: 256 µg/mL
Klebsiella pneumoniae; read-out: Meropenem MIC, isolate LA-34 (VIM, CMY), second entry of Table 3
  MIC: 64 µg/mL
Klebsiella pneumoniae; read-out: Meropenem MIC, isolate LA-82/16 (VIM, SHV)
  MIC: 64 µg/mL
Klebsiella pneumoniae; read-out: Meropenem MIC, isolate LA-419/16 (NDM,CTXM)
  MIC: 16 µg/mL
Klebsiella pneumoniae; read-out: Meropenem MIC, isolate LAR-26I/15 (NDM, VIM, CTXM)
  MIC: 64 µg/mL
Klebsiella pneumoniae; read-out: Meropenem MIC, isolate LAR-38I/15 (VIM, NDM, CTXM)
  MIC: 16 µg/mL
Klebsiella pneumoniae; read-out: Meropenem MIC, isolate LAR-40II/15 (KPC)
  MIC: 64 µg/mL
Klebsiella pneumoniae; read-out: Meropenem MIC, isolate LAR-2873 (VIM-12)
  MIC: 8 µg/mL
Klebsiella pneumoniae; read-out: Meropenem MIC, isolate SEC-2 (VIM)
  MIC: 64 µg/mL
Klebsiella pneumoniae; read-out: Meropenem MIC, isolate SEC-4 (VIM)
  MIC: 32 µg/mL
Klebsiella pneumoniae; read-out: Meropenem MIC, isolate TZAN-59 (β-lactamase: None)
  MIC: 0.5 µg/mL
Klebsiella pneumoniae; read-out: Meropenem MIC, isolate UoA 12/227 (VIM)
  MIC: 64 µg/mL
Klebsiella pneumoniae; read-out: Meropenem MIC, isolate UoA 1995 (VIM)
  MIC: 64 µg/mL
[1]
  survival: 30%
[2]
  mice protected (survival): 80%
[3]
  protection from death: unable to protect any mice from death
[4]
  drug hydrolyzed: ~100%

From patent EP3714904B1, “IMINODIACETIC ACID SUBSTITUTED CYCLODEXTRINS AS POTENTIATORS OF BETA-LACTAM ANTIBIOTICS” (NATIONAL CENTER FOR SCIENTIFIC RESEARCH "DEMOKRITOS" (NCSRD), priority 2019, dated 2020)
